Measured values reported in publication PMC6776382.

Experiment: Two-component Cys-Cys stapling by Pd-catalysed Tsuji-Trost S-allylation with bis(allylic carbonate) Ri ((Z)-but-2-ene-1,4-diyl) or Rj (2-methylenepropane-1,3-diyl), 1.2 eq; 2.4 eq Pd(dba)2, 2.4 eq BIPHEPHOS; bis-thioether formation
Details: the molecule shown is the open-chain precursor, CH3CN/H2O 2:1, 1.0 mM, 40.0 °C, 3.0 h, scale: 1 = cyclic product formed with full conversion of the linear peptide

Substance “H-Glu-Trp-Ala-Cys-Thr-Ala-Ala-Cys-Lys-Phe-Leu-Ala-Ala-His-Ala-OH (Cys4/Cys8 free SH; one S carries CH2CH=CHCH2OCO2Me from Ri at closure; two product peaks, presumably E/Z)” has a ring closure, product found (21-membered ring) of 1.
Substance “H-Glu-Trp-Ala-Cys-Thr-Ala-Cys-Ala-Lys-Phe-Leu-Ala-Ala-His-Ala-OH (Cys4/Cys7 free SH; one S carries CH2C(=CH2)CH2OCO2Me from Rj at closure; single product peak)” has a ring closure, product found (17-membered ring) of 1.
Work on “H-Glu-Trp-Ala-Cys-Thr-Ala-Cys-Ala-Lys-Phe-Leu-Ala-Ala-His-Ala-OH (Cys4/Cys7 free SH; one S carries CH2CH=CHCH2OCO2Me from Ri at closure; two product peaks, presumably E/Z)” yielded a ring closure, product found (18-membered ring) of 1.
“H-Glu-Trp-Ala-Cys-Thr-Ala-Ala-Cys-Lys-Phe-Leu-Ala-Ala-His-Ala-OH (Cys4/Cys8 free SH; one S carries CH2C(=CH2)CH2OCO2Me from Rj at closure; single product peak)” showed a ring closure, product found (20-membered ring) of 1.
In the case of “H-Ala-Gly-Cys-Lys-Asn-Phe-Phe-Trp-Lys-Thr-Phe-Thr-Ser-Cys-OH (Cys3/Cys14 free SH; one S carries CH2CH=CHCH2OCO2Me from Ri at closure; single product peak)”, the ring closure, product found (42-membered ring) is reported as 1.
In the case of “H-Ala-Gly-Cys-Lys-Asn-Phe-Phe-Trp-Lys-Thr-Phe-Thr-Ser-Cys-OH (Cys3/Cys14 free SH; one S carries CH2C(=CH2)CH2OCO2Me from Rj at closure; two monomer peaks plus approx. 10% 2+2 dimer)”, the ring closure, product found (41-membered ring) is reported as 1.
